From the supplement of paper PMC10307832

Experiments:
Test in all cases: relative viability (nuclei count vs DMSO), 5 days (fraction); higher = more cells survive
[1] = compound: C[As](C)SC[C@H](NC(=O)CC[C@H](N)C(=O)O)C(=O)NCC(=O)O [Darinaparsin] + COc1cccc2cc(-c3nc([C@H]4CC[C@H](C(=O)O)CC4)n4ncnc(N)c34)[nH]c12 [OSI-027] (partner 0.5 µM)
Summary of the method: (§1)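 Relative viability is defined as nuclei in treated wells over nuclei in vehicle wells. Duplicate plates were run and medians reported. Lung cancer cell lines in 1536-well plates were dosed by pin tool one day after seeding, with one drug or with a fixed anchor-drug dose plus five library-drug doses (not always all listed) in √10 steps, and nuclei were counted after 5 days.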

[2] = compound: C[As](C)SC[C@H](NC(=O)CC[C@H](N)C(=O)O)C(=O)NCC(=O)O [Darinaparsin] + NC(=O)Nc1cc(-c2cccc(F)c2)sc1C(=O)N[C@H]1CCCNC1 [AZD7762] (partner 0.2 µM)
Summary of the method: as §1

[3] = compound: C[As](C)SC[C@H](NC(=O)CC[C@H](N)C(=O)O)C(=O)NCC(=O)O [Darinaparsin] + Nc1nc2[nH]cc(CCc3ccc(C(=O)N[C@@H](CCC(=O)O)C(=O)O)cc3)c2c(=O)[nH]1 [Pemetrexed] (partner 0.2 µM)
Summary of the method: as §1

[4] = compound: CC1=C(C=C(C=C1)NC(=O)C2=CC(=CC=C2)C(C)(C)C#N)NC3=CC4=C(C=C3)N=CN(C4=O)C [AZ628] + C[C@]1(O)C[C@@H](c2nc(-c3ccc4ccc(-c5ccccc5)nc4c3)c3c(N)nccn32)C1 [Linsitinib] (partner 1 µM)
Summary of the method: as §1

| Cell Line | relative viability ([1]; first compound 0.08 µM) | relative viability ([1]; first compound 0.8 µM) | relative viability ([1]; first compound 2.53 µM) | relative viability ([1]; first compound 8 µM) | relative viability ([2]; first compound 0.8 µM) | relative viability ([2]; first compound 8 µM) | relative viability ([3]; first compound 0.8 µM) | relative viability ([3]; first compound 8 µM) | relative viability ([3]; first compound 0.08 µM) | relative viability ([3]; first compound 2.53 µM) | relative viability ([4]; first compound 0.08 µM) | relative viability ([4]; first compound 0.253 µM) | relative viability ([4]; first compound 0.8 µM) | relative viability ([4]; first compound 2.53 µM) | relative viability ([4]; first compound 8 µM) | relative viability ([2]; first compound 0.08 µM) | relative viability ([2]; first compound 2.53 µM) |
| --- | --- | --- | --- | --- | --- | --- | --- | --- | --- | --- | --- | --- | --- | --- | --- | --- | --- |
| NCI-H1623 | 0.429 | 0.496 | 0.471 | 0.393 |  |  |  |  |  |  |  |  |  |  |  |  |  |
| NCI-H1648 | 0.297 | 0.237 |  | 0.269 | 0.65 | 0.691 | 0.716 | 0.683 |  |  |  |  |  |  |  |  |  |
| NCI-H1650 | 0.567 | 0.612 | 0.504 | 0.757 |  |  | 0.369 | 0.396 | 0.426 | 0.342 |  |  |  |  |  |  |  |
| NCI-H1703 |  |  |  |  | 0.186 | 0.132 |  |  |  |  | 0.404 | 0.328 | 0.219 | 0.209 | 0.201 | 0.199 |  |
| NCI-H2009 | 0.61 | 0.657 | 0.584 | 0.587 |  |  | 1.07 | 1.08 | 1.09 | 1 | 1.06 | 0.973 | 0.724 | 1.05 | 0.358 |  |  |
| NCI-H2023 | 0.483 | 0.364 | 0.33 | 0.486 |  |  | 0.231 | 0.227 | 0.335 | 0.202 | 0.723 | 0.677 | 0.72 | 0.758 | 0.358 |  |  |
| NCI-H2170 | 0.734 | 0.725 | 0.697 | 0.727 | 0.916 | 1.11 | 0.267 | 0.287 | 0.32 | 0.389 |  |  |  |  |  | 0.946 | 0.852 |
| NCI-H2228 | 0.778 | 0.5 | 0.483 | 0.78 |  |  | 0.322 | 0.427 | 0.379 | 0.325 | 0.504 | 0.686 | 0.622 | 1.1 | 0.517 |  |  |
| NCI-H2342 | 0.592 | 0.593 | 0.558 | 0.654 | 0.463 | 0.498 | 0.782 | 0.841 | 0.785 | 0.743 |  |  |  |  |  | 0.642 | 0.418 |
| SK-LU-1 | 0.363 | 0.299 | 0.257 | 0.351 |  |  | 0.942 | 1.18 | 1.21 | 0.787 | 0.728 | 1 | 0.907 | 1.07 | 0.901 |  |  |
| SK-MES-1 | 0.627 | 0.743 | 0.561 | 0.819 |  |  | 0.924 | 1.12 | 1.17 | 0.924 | 0.98 | 1.06 | 0.939 | 1.03 | 0.637 |  |  |
| SW 1573 | 0.736 | 0.627 | 0.611 | 0.87 |  |  | 0.84 | 0.939 | 1 | 0.815 | 0.599 | 0.725 | 0.661 | 0.632 | 0.412 |  |  |
| UMC-11 | 0.543 | 0.529 | 0.414 | 0.592 |  |  | 0.863 | 0.878 | 0.884 | 0.778 | 1.02 | 1.12 | 1.03 | 0.976 | 1.02 |  |  |
